According to patent US20240024228A1, “Apremilast Ophthalmic Compositions” (APRAMITHA INNOVATIONS PRIVATE LIMITED, priority 2020, published 2024):

Legend:
[1] = Solubility study of Apremilast in surfactants and their combinations; assay type: physicochemical
Protocol: The solubility of Apremilast was evaluated in various surfactants and their combinations:
About 50 mg of Apremilast (0.05% w/w) was weighed and dissolved in surfactant and or combination of surfactants at different ratios by heating at a temperature below 85° C. After complete solubilization of the Apremilast in the solubilizer matrix, purified water (q.s to 100%) was added, vortexed for 2 minutes and kept aside.

[2] = cited from earlier work
[3] = dissolved by heating below 85° C., water q.s., observed 24 hrs to 1 week

**Q.** Which results are given for `CCOc1cc([C@@H](CS(C)(=O)=O)N2C(=O)c3cccc(NC(C)=O)c3C2=O)ccc1OC` [Apremilast, N-[2-[(1S)-1-(3-ethoxy-4-methoxyphenyl)-2-(methylsulfonyl)ethyl]-1,3-dioxo-2,3-dihydro-1H-isoindol-4-yl]acetamide]?
**A.** Solubility in combination of surfactants (Tween 80 and Kolliphore E L) with PEG400 [1]: good solubility; Stabilization of API ([1]; PEG400 in combination with Tween 80/Kolliphore E L): stabilized; Surfactant concentration sufficient to stabilise Apremilast ([1]; Tween 80 / kolliphor E. L, 0.001-0.9% w/w of Apremilast): 4 % w/w; Precipitation of Apremilast ([1]; below 2-8% Tween80 / kolliphor E. L concentration): precipitated out; Appearance of solution / prevention of precipitation ([1]; combination of Tween 80 and kolliphor E. L): clear solution; Solubility in Tween 80 [1, 3]: good solubility; Solubility in kolliphor E. L [1, 3]: good solubility; Precipitation of Apremilast ([1]; with 2-8% Tween80 and 2-8% kolliphor E. L): not observed; Precipitation of Apremilast ([1]; with 5% PEG 400 alone): precipitation was observed; Solubility in polar solvents ([2]; polar solvents): minimal solubility; Solubility in water ([2]; water): insolubility
